# In patent publication US20150299801A1, “Techniques for Treating Acute Lymphoblastic Leukemia (ALL)” (THE TRUSTEES OF COLUMBIA UNIVERSITY IN THE CITY OF NEW YORK, priority 2012, published 2015):
# Legend:
# [1] = system: CUTLL1 T-ALL cells expressing relapse-associated mutant NT5C2 alleles; experiment: MTT cell viability and chemotherapy drug response, CUTLL1 cells expressing mutant NT5C2; type: cell-based; settings: for increase of IC50 for mutations versus control (RFP) or wild type (NT5C2 WT): CUTLL1 cell line, NT5C2 R367Q, D407A
# Experimental: (§1) To formally test the role of NT5C2 mutations in chemotherapy resistance, the effects of wild type and relapse-associated mutant NT5C2 expression were analyzed in the response of CCRF-CEM T-ALL cells to 6-mercaptopurine (6-MP) and 6-thyogunanine (6-TG). Expression of NT5C2 mutations in ALL cells induces resistance to chemotherapy with 6-MP and 6-TG. Viability assays were performed in CCRF-CEM and CUTLL1 T-ALL cells expressing wild type NT5C2, relapse-associated mutant NT5C2 alleles, or a red fluorescent protein (RFP) as control, treated with increased concentrations of the nucleoside analog chemotherapeutic drugs.
# (§2) CCRF-CEM and CUTLL1 cells were cultured in RPMI-1640 media supplemented with 10% fetal bovine serum, 100U/ml penicillin G and 100 ug/ml streptomycin at 37 C in a humidified atmosphere under 5% CO2. HEK293T were maintained under similar conditions in DMEM media.
# (§3) The lentiviral constructs pLOC-NT5C2, pLOC-NT5C2 359, pLOC-I 367, pLOC-I 407 and the pLOC-RFP control plasmid were transfected with gag-pol and V-SVG expressing vectors into HEK293T cells using JetPEI transfection reagent (Polyplus, of Illkirch, France). Viral supernatants were collected after 48 h and used for infection of CCRF-CEM and CUTLL1 cells by spinoculation. After infection, cells were selected for 5 days in blasticidin and ficolled the day before experiments.
# (§4) Cell viability was determined by measurement of the metabolic reduction of the tetrazolium salt MTT using the Cell Proliferation Kit I (Roche, of Indianapolis, Ind.) following the manufacturer instructions. Experiments were done in triplicates. Viability was analyzed after 48 or 72 hours of initiation of treatment with 6-mercaptopurine, 6-thioguanine, nelarabine and Ara-G.
# [2] = system: CCRF-CEM T-ALL cells expressing relapse-associated mutant NT5C2 alleles; experiment: MTT cell viability and chemotherapy drug response, CCRF-CEM cells expressing mutant NT5C2; type: cell-based; settings: for increase of IC50 for mutations versus control (RFP) or wild type (NT5C2 WT): CCRF-CEM cell line, NT5C2 R367Q, D407A; for IC50: Homo sapiens, CCRF-CEM cells expressing mutation (NT5C2 R367Q), read from graph, viability relative to vehicle treated cells, read-out: log concentration at which viability falls to 50% (converted); for resistance to therapy compared with empty vector and wild type NT5C2 controls: cells expressing NT5C2 K359Q, R367Q and D407A, increased drug concentrations
# Experimental: as §1, §2, §3, §4
# [3] = system: CUTLL1 T-ALL cells expressing RFP control or wild type NT5C2; experiment: MTT cell viability and chemotherapy drug response, CUTLL1 control cells; type: cell-based; settings: CUTLL1 cells expressing RFP control or NT5C2 WT; read from graph; read-out: log concentration at which viability falls to 50% (converted)
# Experimental: as §1
# CCRF-CEM and CUTLL1 cells were cultured in RPMI-1640 media supplemented with 10% fetal bovine serum, 100U/ml penicillin G and 100 ug/ml streptomycin at 37 C in a humidified atmosphere under 5% CO2. HEK293T were maintained under similar conditions in DMEM media. […]
# as §4, with “Experiments were done in triplicates.” left out
# [4] = system: CCRF-CEM T-ALL cells expressing RFP control or wild type NT5C2; experiment: MTT cell viability and chemotherapy drug response, CCRF-CEM control cells; type: cell-based; settings: Homo sapiens; CCRF-CEM cells expressing RFP control or NT5C2 WT; read from graph; read-out: log concentration at which viability falls to 50% (converted)
# Experimental: as §1, §2, §3, §4
# [5] = target: T1, NT5C2 R291W (Homo sapiens, UniProt P49902, R291W); experiment: 5'-nucleotidase activity as a function of ATP concentration, R291W; type: biochemical
# T1 construct: His6 (N); made in house; host or cells: Rosetta 2(DE3) E. coli (described for WT, K359Q, R367Q, D407A)
# [6] = system: NT5C2 K359Q, R367Q, D407A, L375F, R238W; experiment: 5'-nucleotidase activity as a function of ATP concentration, remaining mutations; type: biochemical, human
# Experimental: (§5) Biochemical nucleotidase assays measuring release of phosphate upon incubation of NT5C2 with phosphonucleodides were used, including a commercial kit that measures enzymatic activity. (See file DZ123A.php in subfolder reagents of folder products in the World Wide Web at domain diazyme in category corn.)
# (§6) Full length cDNA constructs encoding wild type NT5C2, NT5C2 K359Q, NT5C2 R367Q and NT5C2 D407A were cloned with an N-terminal His6 tag in the pET28a-LIC expression vector using the In-Fusion HD PCR cloning system (Clontech, of Mountain View, Calif.), as per manufacturer's instructions. Recombinant proteins were expressed from Rosetta 2(DE3) E. coli cells by induction with 0.5 mM isopropyl-β-D-thiogalactopyranoside for 3 hours at 37° C. […] Protein expression and purity was assessed y SDS-PAGE and Coomassie staining.
# (§7) 5′-Nucleotidase activity of purified recombinant wild type and mutant NT5C2 proteins was assessed using the 5′-nucleotidase (5′-NT) Enzymatic Test Kit (Diazyme, of Poway, Calif.), according to the manufacturer's instructions. […] H2O2 is quantified using a Trinder reaction. 5′-Nucleotidase activity levels are calculated using a calibrator of known 5′-NT activity as standard. Assays were performed in triplicate in an Infinite M200 Tecan (of Mannedorf, Switzerland) plate reader.
# [7] = target: T2, NT5C2 Q523X (Homo sapiens, UniProt P49902); experiment: 5'-nucleotidase activity as a function of ATP concentration, Q523X; type: biochemical
# T2 construct: His6 (N); made in house; host or cells: Rosetta 2(DE3) E. coli (described for WT, K359Q, R367Q, D407A)
# [8] = target: T3, NT5C2 WT (Homo sapiens, UniProt P49902); experiment: 5'-nucleotidase activity as a function of ATP concentration, wild type; type: biochemical
# T3 construct: Full length cDNA constructs encoding wild type NT5C2, NT5C2 K359Q, NT5C2 R367Q and NT5C2 D407A were cloned; His6 (N); made in house; host or cells: Rosetta 2(DE3) E. coli
# Experimental: as §5, §6, §7
# [9] = read-out: A0.5, ATP concentration to achieve an activity equal to half Vmax
# T2 sequence (P49902 1-522 limits assumed): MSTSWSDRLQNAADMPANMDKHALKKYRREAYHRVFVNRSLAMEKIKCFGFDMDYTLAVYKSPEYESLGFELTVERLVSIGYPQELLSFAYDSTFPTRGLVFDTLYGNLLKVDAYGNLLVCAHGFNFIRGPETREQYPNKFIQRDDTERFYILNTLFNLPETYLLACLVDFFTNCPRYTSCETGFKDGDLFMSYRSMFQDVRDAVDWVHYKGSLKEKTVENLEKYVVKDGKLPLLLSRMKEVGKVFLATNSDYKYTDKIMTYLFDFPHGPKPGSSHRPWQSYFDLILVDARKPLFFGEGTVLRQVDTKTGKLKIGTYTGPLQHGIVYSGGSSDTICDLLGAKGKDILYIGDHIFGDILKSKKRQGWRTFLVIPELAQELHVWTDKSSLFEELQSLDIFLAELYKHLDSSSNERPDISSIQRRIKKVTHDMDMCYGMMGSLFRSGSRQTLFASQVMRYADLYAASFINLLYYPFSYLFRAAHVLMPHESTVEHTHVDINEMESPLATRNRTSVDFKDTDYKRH
# T1 sequence (P49902 whole entry R291W): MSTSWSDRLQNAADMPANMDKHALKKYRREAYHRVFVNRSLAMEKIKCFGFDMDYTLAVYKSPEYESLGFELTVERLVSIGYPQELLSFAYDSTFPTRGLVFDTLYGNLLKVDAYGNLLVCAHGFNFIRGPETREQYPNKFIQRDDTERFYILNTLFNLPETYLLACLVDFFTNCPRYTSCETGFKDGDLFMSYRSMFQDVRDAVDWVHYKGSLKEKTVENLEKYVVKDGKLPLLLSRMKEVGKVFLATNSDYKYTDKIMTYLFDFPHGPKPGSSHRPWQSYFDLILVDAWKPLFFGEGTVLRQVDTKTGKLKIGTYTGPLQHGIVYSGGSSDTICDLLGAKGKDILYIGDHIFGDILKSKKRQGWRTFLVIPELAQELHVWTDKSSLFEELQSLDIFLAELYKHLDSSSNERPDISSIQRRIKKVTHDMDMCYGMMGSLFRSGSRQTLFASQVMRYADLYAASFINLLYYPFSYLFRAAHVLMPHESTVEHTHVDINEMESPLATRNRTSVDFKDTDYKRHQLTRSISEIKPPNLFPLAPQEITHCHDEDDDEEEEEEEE
SMILES,increase of IC50 for mutations versus control (RFP) or wild type (NT5C2 WT) [1],increase of IC50 for mutations versus control (RFP) or wild type (NT5C2 WT) [2],IC50 [2],resistance to therapy compared with empty vector and wild type NT5C2 controls [2],IC50 [3],IC50 [4],activity in cells expressing relapse-associated NT5C2 mutations compared to controls [2],also measured
"Sc1ncnc2nc[nH]c12 [6-MP, 6-mercaptopurine]",greater than ten times as much,about double,~10 µM,increased resistance,~6.31 µM,~6.31 µM,,
"Nc1nc2nc[nH]c2c(=S)[nH]1 [6-TG, 6-thioguanine]",about double,greater than ten times as much,,increased resistance,~1 µM,~1 µM,,"IC50 ([1]; CUTLL1 cells expressing mutation NT5C2 R367Q, read from graph, read-out: log concentration at which viability falls to 50% (converted)): ~3.16 µM"
Nc1ncnc2c1ncn2[C@@H]1O[C@H](COP(=O)(O)OP(=O)(O)OP(=O)(O)O)[C@@H](O)[C@H]1O [ATP],,,,,,,,"5'-NT activity relative to 0 mM ATP (factor of increase) [5]: over 20; EC50 [5, 9]: ~4000 µM; 5'-NT activity relative to 0 mM ATP ([6]; K359Q, R367Q, D407A, L375F, R238W): little change between reference activity and maximum activity; EC50 ([6]; remaining mutations, read-out: A0.5, ATP concentration to achieve an activity equal to half Vmax): < 1000 µM; 5'-NT activity relative to 0 mM ATP (factor of increase) [7]: over 20; EC50 [7, 9]: ~3000 µM; 5'-NT activity relative to 0 mM ATP (factor of increase) ([8]; ATP concentrations over 20 mM): over 60; EC50 [8, 9]: 19500 µM"
Nc1nc2c(ncn2[C@@H]2O[C@H](CO)[C@@H](O)[C@@H]2O)c(=O)[nH]1 [AraG],,,,,,,equally active,
COc1nc(N)nc2c1ncn2[C@@H]1O[C@H](CO)[C@@H](O)[C@@H]1O [nelarabine],,,~100 µM,,,~100 µM,equally active,
